Source: paper PMC4591261, “Design, Synthesis and Evaluation of 2,5-Diketopiperazines as Inhibitors of the MDM2-p53 Interaction” (PLoS ONE, 2015)
“And” between values parts separate entries of the source, which are not always exact repeats. Identical values can stand only once.

Columns and labels:
GST-MDM2 (1 – 188) = GST-MDM2 (1 – 188) (Homo sapiens, UniProt Q00987); assay: Fluorescence polarisation (FP) assay, displacement of Texas Red labeled wild-type p53 peptide from MDM2; type: binding; conditions: for activity in the FP-assay (in words): tested concentrations up to 100 μM; for IC50: 1 μM GST-MDM2 (1-188), 15 nM Texas Red labeled wild-type p53 peptide, 1 h at r.t., 95% CI
GST-MDM2 (1 – 188), sequence (Q00987 1-188): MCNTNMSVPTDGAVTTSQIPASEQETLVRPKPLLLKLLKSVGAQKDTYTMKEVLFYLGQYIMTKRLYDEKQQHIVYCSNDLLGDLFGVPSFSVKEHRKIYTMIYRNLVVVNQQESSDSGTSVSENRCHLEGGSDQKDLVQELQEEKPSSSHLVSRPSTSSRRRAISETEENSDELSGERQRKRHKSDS
Protocol: To evaluate the 2,5-DKPs as potential MDM2-p53 inhibitors, the same FP-assay was used as for the type III inhibitors.
The FP assay was performed in black 384-well microtiter plates at a final volume of 20 μL per well. […] Two to seven independent experiments of normalized data were combined into a data set, and then fit using a non-linear regression in GraphPad Prism with the formula log(inhibitor) vs. response – Variable slope (four parameters). Additionally the residuals of the curve fit were plotted to determine the fit of the theoretical curve. IC50 and 95% confidence intervals (CI) were determined from these graphs.

MDM2 [1] = biological target: T1, MDM2 (Homo sapiens, UniProt Q00987); assay: WaterLOGSY NMR binding experiment; conditions: compound 200 µM, MDM2 protein 5 µM, 298 K
T1 sequence (Q00987 whole entry): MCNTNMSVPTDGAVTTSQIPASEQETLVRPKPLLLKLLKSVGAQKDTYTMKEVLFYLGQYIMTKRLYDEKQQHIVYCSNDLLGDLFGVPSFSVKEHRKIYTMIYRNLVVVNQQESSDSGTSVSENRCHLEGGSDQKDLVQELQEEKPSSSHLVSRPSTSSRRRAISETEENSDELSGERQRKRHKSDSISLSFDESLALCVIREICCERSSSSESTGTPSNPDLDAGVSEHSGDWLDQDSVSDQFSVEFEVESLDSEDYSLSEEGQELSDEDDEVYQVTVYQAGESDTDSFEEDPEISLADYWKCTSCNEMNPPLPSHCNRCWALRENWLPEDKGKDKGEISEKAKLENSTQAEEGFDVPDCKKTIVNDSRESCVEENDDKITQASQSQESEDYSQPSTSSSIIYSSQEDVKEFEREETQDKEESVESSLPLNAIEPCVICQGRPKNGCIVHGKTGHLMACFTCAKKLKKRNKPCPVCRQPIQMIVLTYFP
Protocol: All NMR experiments were performed at 298 K (25 °C) using a Bruker Avance 600 MHz spectrometer equipped with TCI cryogenic gradient probe. Compounds (20 mM stock solution in DMSO-D6) were added to buffer (25mM HEPES, pH7.2, 150 mM NaCl, 2mM TCEP) or buffer containing MDM2 protein (5 µM) to give final compound concentration of 200 µM. One-dimensional (1D) ^1H- and WaterLOGSY (water-ligand observed via gradient spectroscopy)^8 NMR spectra were recorded for compounds, protein, and compounds plus protein, respectively. NMR spectra were processed using Bruker Topspin software.

MDM2 [2] = biological target: T1, MDM2; assay: Surface plasmon resonance (SPR) binding to biotinylated MDM2; conditions: 1:1 interaction model, 20 °C; for Rmax (RU): SPR
Protocol: To confirm binding to the target, surface plasmon resonance (SPR) was used to study interactions of 52RR and 52RS with MDM2 [41, 42].
MDM2 was minimally biotinylated by reaction with EZ-Link Sulfo-NHS-LC-LC-Biotin (Thermo Scientific). The biotin reagent was added to the protein at a 0.5:1 molar ratio, and the reaction was incubated on ice for 3-4 hours. Unconjugated biotin was removed by processing the samples through two Zeba Spin Desalting Columns (Thermo Scientific) that had been equilibrated with storage buffer (20 mM Bis-Tris pH 6.5, 200 mM NaCl, 20 mM dithiothreitol, 20% glycerol). Bovine serum albumin (BSA) was added to the reaction at a final concentration of 0.1 mg/mL immediately prior to processing through the spin columns to improve recovery.^2 The biotinylated protein was aliquotted, flash-frozen and stored at -80° C for use in subsequent binding experiments.
SPR experiments were conducted at 20 °C using a SensiQ Pioneer optical biosensor (SensiQ Technologies). Neutravidin (Thermo Scientific) was covalently immobilized on a polysaccharide hydrogel-coated gold surface (COOH5 chip; SensiQ Technologies) using routine amine coupling chemistry in immobilization buffer (10 mM HEPES pH 7.4, 150 mM NaCl, 0.005% Tween20). Carboxyl groups on the hydrogel were activated with N-ethyl-N´-(3-dimethylaminopropyl) carbodiimide (EDC) and N-hydroxysuccinimide (NHS), and neutravidin was injected in 10 mM sodium acetate pH 5.0 until immobilization levels of ~3000-3400 RU were achieved. Remaining active sites were blocked by reaction with ethanolamine. The instrument was primed with binding buffer (20 mM Tris pH 8.0, 100 mM NaCl, 5 mM dithiothreitol, 0.005% Tween20, 5% glycerol, 5% DMSO), and biotinylated MDM2 was injected until ~1070 RU of protein was captured. Unoccupied biotin-binding sites of neutravidin on both the reference and protein surfaces were blocked with amine-PEG2-biotin (Thermo Scientific) to minimize potential non-specific binding by the compounds.^3
The data were processed, double-referenced, solvent corrected and analyzed^4 using the software package Qdat (version 2.5.5.12 , BioLogic Software). The equilibrium dissociation constants (KD) were determined by fitting the data to a 1:1 (Langmuir) interaction model.

Row | SMILES | activity in the FP-assay (in words) (GST-MDM2 (1 – 188)) | IC50 (GST-MDM2 (1 – 188)) | binding to MDM2 by WaterLOGSY (in words) (MDM2 [1]) | Rmax (RU) (MDM2 [2]) | ka (M^-1s^-1) (MDM2 [2]; SPR kinetic analysis) | kd (s^-1) (MDM2 [2]; SPR kinetic analysis)
1 | CC(C)(C)OC(=O)CN1C(=O)[C@@H](c2ccc(Cl)cc2)N(c2ccc(Cl)cc2)C(=O)[C@H]1Cc1ccccc1 [44RR, (3R,6R)-3-Benzyl-1,6-(di-4-chlorophenyl)-4-(tert-butoxy-carbonyl-methyl)-piperazine-2,5-dione] | inactive |  |  |  |  | 
2 | CC(C)(C)OC(=O)CN1C(=O)[C@H](c2ccc(Cl)cc2)N(c2ccc(Cl)cc2)C(=O)[C@H]1Cc1ccccc1 [44RS, (3R,6S)-3-Benzyl-1,6-(di-4-chlorophenyl)-4-(tert-butoxy-carbonyl-methyl)-piperazine-2,5-dione] | inactive |  |  |  |  | 
3 | O=C(O)CN1C(=O)[C@@H](c2ccc(Cl)cc2)N(c2ccc(Cl)cc2)C(=O)[C@H]1Cc1ccccc1 [52RR, (3R,6R)-3-Benzyl-1,6-(di-4-chlorophenyl)-4-(carboxy-methyl)-piperazine-2,5-dione] |  | 31.4 µM and 31 µM | confirmed binding | 16.6 (± 0.2) RU |  | 
4 | O=C(O)CN1C(=O)[C@H](c2ccc(Cl)cc2)N(c2ccc(Cl)cc2)C(=O)[C@H]1Cc1ccccc1 [52RS, (3R,6S)-3-Benzyl-1,6-(di-4-chlorophenyl)-4-(carboxy-methyl)-piperazine-2,5-dione] |  | 28 µM | confirmed binding | 16.8 (± 0.2) RU |  | 
5 | COc1ccc(C2=N[C@@H](c3ccc(Cl)cc3)[C@@H](c3ccc(Cl)cc3)N2C(=O)N2CCNC(=O)C2)c(OC(C)C)c1 [Nutlin-3a] |  |  |  | 28.4 (± 0.1) RU | 9.10 (± 0.01) x 10^5 M^-1s^-1 | 2.80 (± 0.01) x 10^-2 s^-1
